Drawing on patent US9650340B2, “5-fluoro-N-(pyridin-2-yl)pyridin-2-amine derivatives containing a sulfoximine group” (BAYER PHARMA AKTIENGESELLSCHAFT, priority 2012, dated 2017), this text covers IC50 for 13 compounds.

The target of one test is T1, CDK9/CycT1 (Homo sapiens, UniProt P50750).
T1 construct: Recombinant full-length His-tagged human CDK9 and CycT1; His; purchased Invitrogen PV4131; host or cells: insect cells
The test can be described thus: CDK9/CycT1 high ATP kinase assay (TR-FRET, 2 mM ATP). It counts as biochemical. The settings on record: Method 1b. The method, then: 1b. CDK9/CyeT1 High ATP Kinase Assay
CDK9/CycT1-inhibitory activity of compounds of the present invention at a high ATP concentration after preincubation of enzyme and test compounds was quantified employing the CDK9/CycT1 TR-FRET assay as described in the following paragraphs.
Recombinant full-length His-tagged human CDK9 and CycT1, expressed in insect cells and purified by Ni-NTA affinity chromatography, were purchase from Invitrogen (Cat. No PV4131). As substrate for the kinase reaction biotinylated peptide biotin-Ttds-[…] (C-terminus in amid form) was used which can be purchased e.g. form the company JERINI peptide technologies (Berlin, Germany). For the assay 50 nl of a 100 fold concentrated solution of the test compound in DMSO was pipetted into a black low volume 384 well microtiter plate (Greiner Bio-One, Frickenhausen, Germany), 2 μl of a solution of CDK9/CycT1 in aqueous assay buffer [50 mM Tris/HCl pH 8.0, 10 mM MgCl2, 1.0 mM dithiothreitol, 0.1 mM sodium ortho-vanadate, 0.01% (v/v) Nonidet-P40 (Sigma)] were added and the mixture was incubated for 15 min at 22° C. to allow pre-binding of the test compounds to the enzyme before the start of the kinase reaction. Then the kinase reaction was started by the addition of 3 μl of a solution of adenosine-tri-phosphate (ATP, 3.3 mM=>final conc. in the 5 μl assay volume is 2 mM) and substrate (1.67 μM=>final conc. in the 5 μl assay volume is 1 μM) in assay buffer and the resulting mixture was incubated for a reaction time of 25 min at 22° C.
The resulting mixture was incubated 1 h at 22° C. to allow the formation of complex between the phosphorylated biotinylated peptide and the detection reagents. Subsequently the amount of phosphorylated substrate was evaluated by measurement of the resonance energy transfer from the Eu-chelate to the streptavidine-XL. Therefore, the fluorescence emissions at 620 nm and 665 nm after excitation at 350 nm was measured in a HTRF reader, e.g. a Rubystar (BMG Labtechnologies, Offenburg, Germany) or a Viewlux (Perkin-Elmer). The ratio of the emissions at 665 nm and at 622 nm was taken as the measure for the amount of phosphorylated substrate.
(In general: In TR-FRET formats the signal depends on donor and acceptor labels being close together.)

The subject of test [1] is HeLa, human cervical tumour cells. The test can be described thus: Proliferation assay, HeLa (crystal violet). The format is cell-based. The settings on record: Homo sapiens, 96 h, 4 days, read-out: Inhibition of HeLa cell proliferation IC50. How it is done: (§1) Cultivated tumour cells (HeLa, human cervical tumour cells, ATCC CCL-2; NCI-H460, human non-small cell lung carcinoma cells, ATCC HTB-177; A2780, human ovarian carcinoma cells, ECACC #93112519; DU 145, hormone-independent human prostate carcinoma cells, ATCC HTB-81; HeLa-MaTu-ADR, multidrug-resistant human cervical carcinoma cells, EPO-GmbH Berlin; Caco-2, human colorectal carcinoma cells, ATCC HTB-37; B16F10, mouse melanoma cells, ATCC CRL-6475) were plated at a density of 5,000 cells/well (DU145, HeLa-MaTu-ADR), 3,000 cells/well (NCI-H460, HeLa), 2,500 cells/well (A2780), 1,500 cells/well (Caco-2), or 1,000 cells/well (B16F10) in a 96-well multititer plate in 200 μL of their respective growth medium supplemented 10% fetal calf serum. After 24 hours, the cells of one plate (zero-point plate) were stained with crystal violet (see below), while the medium of the other plates was replaced by fresh culture medium (200 μl), to which the test substances were added in various concentrations (0 μM, as well as in the range of 0.001-10 μM; the final concentration of the solvent dimethyl sulfoxide was 0.5%). The cells were incubated for 4 days in the presence of test substances. Cell proliferation was determined by staining the cells with crystal violet: the cells were fixed by adding 20 μl/measuring point of an 11% glutaric aldehyde solution for 15 minutes at room temperature. After three washing cycles of the fixed cells with water, the plates were dried at room temperature. The cells were stained by adding 100 μl/measuring point of a 0.1% crystal violet solution (pH 3.0). After three washing cycles of the stained cells with water, the plates were dried at room temperature. The dye was dissolved by adding 100 μl/measuring point of a 10% acetic acid solution. The extinction was determined by photometry at a wavelength of 595 nm. The change of cell number, in percent, was calculated by normalization of the measured values to the extinction values of the zero-point plate (=0%) and the extinction of the untreated (0 μm) cells (=100%). The IC50 values (inhibitory concentration at 50% of maximal effect) were determined by means of a 4 parameter fit. Non-adherent MOLM-13 human acute myeloid leukemia cells (DSMZ ACC 554) were seeded at a density of 5,000 cells/well in a 96-well multititer plate in 100 μL of growth medium supplemented 10% fetal calf serum. After 24 hours, cell viability of one plate (zero-point plate) was determined with the Cell Titre-Glo Luminescent Cell Viability Assay (Promega), while 50 μL of test compound containing medium was added to the wells of the other plates (final concentrations in the range of 0.001-10 μM and DMSO controls; the final concentration of the solvent dimethyl sulfoxide was 0.5%). Cell viability was assessed after 72-hour exposure with the Cell Titre-Glo Luminescent Cell Viability Assay (Promega).

Test [2] relates to NCI-H460, human non-small cell lung carcinoma cells. The test can be described thus: Proliferation assay, NCI-H460 (crystal violet). It counts as cell-based. The settings on record: Homo sapiens, NCI-H460, 96 h, NCI-H460, 4 days; read-out: Inhibition of NCI-H460 cell proliferation IC50. How it is done: as §1
In test [3] the test system is DU 145, hormone-independent human prostate carcinoma cells. Description: Proliferation assay, DU145 (crystal violet). It counts as cell-based. The following applies: Homo sapiens, DU-145, 96 h, DU145, 4 days; read-out: Inhibition of DU145 cell proliferation IC50. The method, then:
as §1

T1 sequence (P50750 whole entry): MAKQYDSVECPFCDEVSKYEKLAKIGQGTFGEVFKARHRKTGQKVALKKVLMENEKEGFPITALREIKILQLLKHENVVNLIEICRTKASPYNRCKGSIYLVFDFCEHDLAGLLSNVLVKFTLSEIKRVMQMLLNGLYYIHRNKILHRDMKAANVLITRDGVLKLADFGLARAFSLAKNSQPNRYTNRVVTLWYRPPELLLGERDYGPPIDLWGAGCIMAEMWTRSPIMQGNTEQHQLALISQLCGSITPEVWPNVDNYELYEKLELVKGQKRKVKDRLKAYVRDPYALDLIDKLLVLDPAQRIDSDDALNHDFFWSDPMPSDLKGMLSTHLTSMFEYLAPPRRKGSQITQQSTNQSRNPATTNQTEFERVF
T1 sequence (O60563 whole entry partner): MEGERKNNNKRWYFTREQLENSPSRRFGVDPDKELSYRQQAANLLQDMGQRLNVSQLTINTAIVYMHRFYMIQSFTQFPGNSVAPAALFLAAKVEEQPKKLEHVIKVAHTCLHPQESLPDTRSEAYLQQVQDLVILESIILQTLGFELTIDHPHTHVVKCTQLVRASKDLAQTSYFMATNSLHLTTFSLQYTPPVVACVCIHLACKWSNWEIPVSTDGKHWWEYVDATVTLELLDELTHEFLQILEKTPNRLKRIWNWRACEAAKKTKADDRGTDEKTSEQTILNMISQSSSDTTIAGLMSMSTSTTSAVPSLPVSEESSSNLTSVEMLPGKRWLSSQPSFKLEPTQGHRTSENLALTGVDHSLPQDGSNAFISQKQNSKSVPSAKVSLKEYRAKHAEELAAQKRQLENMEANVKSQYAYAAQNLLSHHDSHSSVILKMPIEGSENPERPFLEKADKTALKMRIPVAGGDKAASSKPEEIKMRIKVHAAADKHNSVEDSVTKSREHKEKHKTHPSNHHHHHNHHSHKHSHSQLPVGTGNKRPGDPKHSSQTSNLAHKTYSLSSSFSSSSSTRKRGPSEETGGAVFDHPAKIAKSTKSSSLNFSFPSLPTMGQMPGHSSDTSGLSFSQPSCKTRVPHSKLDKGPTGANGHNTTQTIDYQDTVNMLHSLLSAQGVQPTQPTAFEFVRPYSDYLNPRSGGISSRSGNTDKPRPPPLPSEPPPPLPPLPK

On to `CCNC(=O)N=S(C)(=O)Cc1ccnc(Nc2cc(-c3ccc(F)cc3OC)c(F)cn2)c1` (racemic) [Example 12, (rac)-1-Ethyl-3-{[(2-{[5-fluoro-4-(4-fluoro-2-methoxyphenyl)pyridin-2-yl]amino}pyridin-4-yl)methyl](methyl)oxido-λ^6-sulfanylidene}urea], for which the IC50 on CDK9/CycT1 amounted to 2 nM; in test [1], 34 nM; in test [2], 100 nM; in test [3] it was 77 nM.

Take `COc1cc(F)ccc1-c1cc(Nc2cc(CS(C)(=O)=NC(C)=O)ccn2)ncc1F` (racemic) [Example 13, (rac)-N-{[(2-{[5-Fluoro-4-(4-fluoro-2-methoxyphenyl)pyridin-2-yl]amino}pyridin-4-yl)methyl](methyl)oxido-λ^6-sulfanylidene}acetamide]: the IC50 was determined as 1 nM at CDK9/CycT1, 100 nM in test [1], 110 nM in test [2] and 110 nM in test [3].

Consider `CCOC(=O)N=S(C)(=O)Cc1cc(Nc2cc(-c3ccc(F)cc3OC)c(F)cn2)nc(OC)c1` (racemic) [Example 15, (rac)-ethyl{[(2-{[5-fluoro-4-(4-fluoro-2-methoxyphenyl)pyridin-2-yl]amino}-6-methoxypyridin-4-yl)methyl](methyl)oxido-λ^6-sulfanylidene}carbamate], for which the IC50 on CDK9/CycT1 turned out to be 1 nM; in test [1], 40 nM; in test [2], 32 nM; in test [3] it was 31 nM.

`COc1cc(F)ccc1-c1cc(Nc2cc(CS(C)(=N)=O)cc(F)n2)ncc1F` (racemic) [Example 17, (rac)-5-Fluoro-4-(4-fluoro-2-methoxyphenyl)-N-{6-fluoro-4-[(S-methylsulfonimidoyl)methyl]pyridin-2-yl}pyridin-2-amine]: the IC50 came out at 1.8 nM on CDK9/CycT1, 46 nM in test [1], 45 nM in test [2] and 48 nM in test [3].

`COc1cc(F)ccc1-c1cc(Nc2cc(CS(C)(=O)=NC(=O)C(F)(F)F)cc(F)n2)ncc1F` (racemic) [Example 18, (rac)-2,2,2-Trifluoro-N-{[(2-fluoro-6-{[5-fluoro-4-(4-fluoro-2-methoxyphenyl)pyridin-2-yl]amino}pyridin-4-yl)methyl](methyl)oxido-λ^6-sulfanylidene}acetamide]: the IC50 was found to be 4 nM against CDK9/CycT1, 61 nM in test [1], 110 nM in test [2] and 41 nM in test [3].

As to `COc1cc(F)ccc1-c1cc(Nc2cc(CS(C)(=N)=O)cc(C(F)(F)F)n2)ncc1F` (racemic) [Example 21, (rac)-5-Fluoro-4-(4-fluoro-2-methoxyphenyl)-N-{4-[(S-methylsulfonimidoyl)methyl]-6-(trifluoromethyl)pyridin-2-yl}pyridin-2-amine], the IC50 is 2 nM against CDK9/CycT1, 29 nM in test [1], 33 nM in test [2] and 30 nM in test [3].

On to `CCOc1cc(F)ccc1-c1cc(Nc2cc(CS(C)(=N)=O)cc(F)n2)ncc1F` (racemic) [Example 26, (rac)-4-(2-Ethoxy-4-fluorophenyl)-5-fluoro-N-{6-fluoro-4-[(S-methylsulfonimidoyl)methyl]pyridin-2-yl}pyridin-2-amine], for which the IC50 against CDK9/CycT1 is 4 nM; in test [1] it was 43 nM; in test [2], 120 nM; in test [3], 110 nM.

As to `CCOc1cc(F)ccc1-c1cc(Nc2cc(CS(C)(=O)=NC(=O)C(F)(F)F)cc(F)n2)ncc1F` (racemic) [Example 27, (rac)-N-{[(2-{[4-(2-Ethoxy-4-fluoro-phenyl)-5-fluoropyridin-2-yl]amino}-6-fluoropyridin-4-yl)methyl]-(methyl)oxido-λ^6-sulfanylidene}-2,2,2-trifluoroacetamide], the IC50 at CDK9/CycT1 came to 22 nM; in test [1], 100 nM; in test [2] it was 120 nM; in test [3] it was 110 nM.

`CCS(=N)(=O)Cc1ccnc(Nc2cc(-c3ccc(F)cc3OC)c(F)cn2)c1` (racemic) [Example 30, (rac)-N-{4-[(S-Ethylsulfonimidoyl)-methyl]pyridin-2-yl}-5-fluoro-4-(4-fluoro-2-methoxyphenyl)pyridin-2-amine]: the IC50 is 5 nM on CDK9/CycT1, 100 nM in test [1], 120 nM in test [2] and 82 nM in test [3].

Take `COc1cc(F)ccc1-c1cc(Nc2cc(CS(C)(=O)=NC#N)ccn2)ncc1F` (single isomer, unassigned) [Example 10, {[(2-{[5-Fluoro-4-(4-fluoro-2-methoxyphenyl)pyridin-2-yl]amino}pyridin-4-yl)methyl](methyl)oxido-λ^6-sulfanylidene}cyanamide]: the IC50 on CDK9/CycT1 was determined as 1 nM; in test [1], 31 nM; in test [2], 39 nM; in test [3], 34 nM.

On to `COc1cc(F)ccc1-c1cc(Nc2cc(CS(C)(=N)=O)cc(C(F)(F)F)n2)ncc1F` (single isomer, unassigned; (+)) [Example 22, (+)-5-Fluoro-4-(4-fluoro-2-methoxyphenyl)-N-{4-[(S-methylsulfonimidoyl)methyl]-6-(trifluoromethyl)pyridin-2-yl}pyridin-2-amine], for which the IC50 at CDK9/CycT1 worked out at 1 nM; in test [1] it was 30 nM; in test [2], 34 nM; in test [3], 32 nM.

As to `COc1cc(F)ccc1-c1cc(Nc2cc(CS(C)(=O)=NC(=O)C(F)(F)F)cc(C(F)(F)F)n2)ncc1F` (single isomer, unassigned; (+)) [Example 24, (+)-2,2,2-Trifluoro-N-[{[2-{[5-fluoro-4-(4-fluoro-2-methoxyphenyl)pyridin-2-yl]amino}-6-(trifluoromethyl)-pyridin-4-yl]methyl}(methyl)oxido-λ^6-sulfanylidene]acetamide], the IC50 is 27 nM at CDK9/CycT1, 32 nM in test [1], 33 nM in test [2] and 33 nM in test [3].

Consider `CCOc1cc(F)ccc1-c1cc(Nc2cc(CS(C)(=N)=O)cc(F)n2)ncc1F` (single isomer, unassigned; (+)) [Example 28, (+)-4-(2-Ethoxy-4-fluorophenyl)-5-fluoro-N-{6-fluoro-4-[(S-methylsulfonimidoyl)methyl]pyridin-2-yl}pyridin-2-amine], for which the IC50 at CDK9/CycT1 is 4 nM; in test [1] it was 99 nM; in test [2], 190 nM; in test [3], 120 nM.
